Data published in patent US8258098B2, “Antitumoral treatments” (Pharma Mar, S.A., priority 2006, dated 2012).

Columns and labels:
UACC-257 cells = test: MTS assay Example 2, single agents and combinations; assay type: cell-based; details: UACC-257, MTS; read-out: IC50 (Molar)
Procedure: (§1) The day before plating cells all cultures were fed with fresh, complete growth media. On the harvest (plating) day cells were counted by Trypan Blue exclusion staining method.
(§2) Cells were harvested and seeded in 96 well microtiter plates at 15,000 cells per well in 190 μl of media and incubated for 24 hours to allow the cells to attach before drug addition.
(§3) The cytotoxic effect was measured by the MTS Assay (Tetrazolium), which is a colorimetric method for determining the number of viable cells.
(§4) After 72 hours of incubation with tested agents 25 μl of MTS+PMS solution was added to each microtiter well and incubated for 4 hours at 37° C. Plates were then removed from incubator and placed on plate shaker for 5 minutes (covered with aluminum foil for protection from light). Optical densities were read at 490 nm on spectrophotometer plate reader. Data was analyzed as: • 1. Prism (Graphpad) software program was used to normalized the data to control values (100%=cell growth in the absence of agent (drug); 0%=blank control). • 2. Data normalized were plotted as scatter plots.
(§5) Conversely, antagonism was concluded when inhibition was lower than both maxima. […] Statistical significance was assessed by performing a student's t-test on the inhibition at each dose ratio versus the inhibition at the maximum for each drug.
(§6) As a visual aid, response values were plotted on a scatter plot with dose ratios given on the x-axis and % response values on the y-axis. […] In cases where response values at the two endpoints were approximately equivalent, points lying above or below this predicted line of additivity could be interpreted as representing antagonistic or synergistic drug interaction respectively.

LOXIMVI cells = test: as above; assay type: cell-based; details: read-out: IC50 (Molar)
Procedure: as §1, §2, §3, §4, §5, §6

[1] = system: UACC-257 human melanoma cells; test: Antitumor efficacy against subcutaneous-implanted melanoma xenograft; assay type: in vivo, female, athymic NCr-nu/nu mice; details: UACC-257 xenograft, median tumor weight; Aplidine 60 μg/kg/dose IP q1d × 9, Carboplatin 50 mg/kg/dose IV q4d × 3
Procedure: The animals were housed in microisolator cages, up to five per cage in a 12-hour light/dark cycle. Six-weeks-old female, athymic NCr-nu/nu mice were acclimated in the laboratories for one week prior to the experiment.
Each mouse was inoculated subcutaneously near the right flank with UACC-257 human melanoma cells from an in vitro cell culture using a 23-gauge needle. Each mouse received 2×10^7 cells resuspended in 0.2 mL of Matrigel®. A vial with UACC-257 human melanoma frozen cells was thawed and cultured in RPMI 1640 medium containing low glucose (2,000 mg/L), sodium bicarbonate ([…]), 2 mM L-glutamine, and 10% fetal bovine serum (complete medium), and grown in a +37° C. incubator in a humidified atmosphere with 5% CO2 until the necessary number of cells for inoculation of mice was obtained. Cells were harvested after four passages in culture. […] The cell count and viability were determined with a Beckman Coulter VI CELL XR cell counter and viability analyzer. […]
Animals were observed daily and clinical signed were noted. The s.c. tumors were measured and the animals were weighed twice weekly starting with the first day of treatment, Day 13. Tumor volume was determined by caliper measurements (mm) and using the formula for an ellipsoid sphere: L×W^2/2=mm^3, where L and W refer to the larger and smaller perpendicular dimensions collected at each measurement. […]

[2] = system: LOX-IMVI melanoma tumor xenografts; test: Net tumor volume in tumor xenografts; assay type: in vivo, female athymic mice; details: DTIC 30 mg/kg, Carboplatin 25 mg/kg, i.p.
Excerpt: (§7) Athymic nude female mice were received from Harlan Sprague Dawley, Madison, Wis. at 4-5 weeks of age. Mice were acclimated to the laboratory for at least one week prior to implantation of tumor. Animals were housed in static cages with food and water allowed ad libitum. Experimental animals were implanted with either tumor fragments derived from transplantation established human tumors or with cells obtain directly from in vitro culture. Tumors were implanted subcutaneously on the right flank on Day 0.
(§8) Tumor size measurements were recorded twice weekly beginning on day 4 or 5 using vernier calipers. The formula to calculate volume for a prolate ellipsoid was used to estimate tumor volume from 2-dimensional tumor measurements: tumor volume (mm^3)=(length×width^2)÷2. Assuming unit density, volume was converted to weight (i.e., 1 mm^3=1 mg). […] Treatments were initiated and administered on an individual body weight basis. A dose range finding study was performed on each tumor model to determine the appropriate dose level of each compound used in the combination studies.

[3] = system: MRI-H187 melanoma tumor xenografts; test: Net tumor volume in tumor xenografts; assay type: in vivo, female athymic mice; details: Aplidine 50 μg/kg, DTIC 40 mg/kg, Carboplatin 25 mg/kg, i.p.
Excerpt: as §7, §8

Compound: N.N.O=C([O-])C1(C(=O)[O-])CCC1.[Pt+2] [carboplatin]
- IC50 (UACC-257 cells): 170 µM
- IC50 (LOXIMVI cells): 120 µM
- % T/C on day 23 [1]: 95%
- % T/C on day 70 [1]: 60%
- Net Tumor Volume ± S.E.M. ([2]; DAY 6, Aplidine 50 μg/kg): 107 ± 3 mg
- Net Tumor Volume ± S.E.M. ([2]; DAY 8, Aplidine 50 μg/kg): 347 ± 43 mg
- Net Tumor Volume ± S.E.M. ([2]; DAY 12, Aplidine 50 μg/kg): 1167 ± 117 mg
- Net Tumor Volume ± S.E.M. ([2]; DAY 14, Aplidine 50 μg/kg): 2936 ± 543 mg
- Net Tumor Volume ± S.E.M. ([2]; DAY 19, Aplidine 50 μg/kg): 4598 ± 1182 mg
- Net Tumor Volume ± S.E.M. ([3]; MRI-H187, DAY 24): 213 ± 32 mg
- Net Tumor Volume ± S.E.M. ([3]; MRI-H187, DAY 27): 301 ± 50 mg
- Net Tumor Volume ± S.E.M. ([3]; MRI-H187, DAY 34): 540 ± 99 mg
- Net Tumor Volume ± S.E.M. ([3]; MRI-H187, DAY 38): 793 ± 132 mg
- Net Tumor Volume ± S.E.M. ([3]; MRI-H187, DAY 41): 917 ± 138 mg
- Net Tumor Volume ± S.E.M. ([3]; MRI-H187, DAY 46): 1303 ± 237 mg
- Net Tumor Volume ± S.E.M. ([3]; MRI-H187, DAY 52): 1603 ± 288 mg
- Net Tumor Volume ± S.E.M. ([3]; MRI-H187, DAY 55): 1989 ± 373 mg
- Net Tumor Volume ± S.E.M. ([3]; MRI-H187, DAY 59): 2292 ± 487 mg
- Net Tumor Volume ± S.E.M. ([3]; MRI-H187, DAY 62): 2659 ± 492 mg
- Net Tumor Volume ± S.E.M. ([3]; MRI-H187, DAY 66): 2723 ± 519 mg
